Data published in article PMC9154192 (PLoS Biology, 2022).
≈ marks a conversion by molar mass, not a printed value. Like-named read-outs stand apart in the source and are kept apart here.

Legend:
[1] = test system: M. bovis BCG strains; assay: organism not typed; assay type: cell-based, Mycobacterium bovis BCG
[2] = for % MNPCE (Mean ± S.D.) / % PCE (Mean ± S.D.): 24 hours after dosing
Procedure: Genotoxicity studies for PP2S were performed according to the ICH (International conference on harmonization) harmonized tripartite guideline, S2(R1). Regarding previous reports, the bacterial reverse mutation test, chromosomal abnormality test, and mouse bone marrow micronucleus test were performed with slight modifications.

Structure (SMILES) | MIC [1] [µg/mL] | Mean body weights ± S.D. ([2]; 500 mg/kg P.O., 0 day) [g] | Mean body weights ± S.D. ([2]; 500 mg/kg P.O., 1 day) [g] | % MNPCE (Mean ± S.D.) ([2]; 500 mg/kg P.O.) [%] | % PCE (Mean ± S.D.) ([2]; 500 mg/kg P.O.) [%] | Mean body weights ± S.D. ([2]; 1000 mg/kg P.O., 0 day) [g] | Mean body weights ± S.D. ([2]; 1000 mg/kg P.O., 1 day) [g] | % MNPCE (Mean ± S.D.) ([2]; 1000 mg/kg P.O.) [%] | % PCE (Mean ± S.D.) ([2]; 1000 mg/kg P.O.) [%] | Mean body weights ± S.D. ([2]; 2000 mg/kg P.O., 0 day) [g] | Mean body weights ± S.D. ([2]; 2000 mg/kg P.O., 1 day) [g] | % MNPCE (Mean ± S.D.) ([2]; 2000 mg/kg P.O.) [%] | % PCE (Mean ± S.D.) ([2]; 2000 mg/kg P.O.) [%] | RPD (relative population doubling) ([2]; S9 mix +, Trt-Rec 6-18 hr, 125 µg/mL) [%] | RPD (relative population doubling) ([2]; S9 mix +, Trt-Rec 6-18 hr, 250 µg/mL) [%] | RPD (relative population doubling) ([2]; S9 mix -, Trt-Rec 6-18 hr, 125 µg/mL) [%] | RPD (relative population doubling) ([2]; S9 mix -, Trt-Rec 6-18 hr, 250 µg/mL) [%] | RPD (relative population doubling) ([2]; S9 mix -, Trt-Rec 24-0 hr, 125 µg/mL) [%] | RPD (relative population doubling) ([2]; S9 mix -, Trt-Rec 24-0 hr, 250 µg/mL) [%] | genotoxicity ([2]; bone marrow micronucleus formation test)
NNC(=O)c1ccncc1 [INH, isoniazid, reference compound] | 0.2 (≈ 1.46 µM) |  |  |  |  |  |  |  |  |  |  |  |  |  |  |  |  |  |  | 
CCCCOc1ccc2cc(CN3C(=O)CC[C@H]3C(=O)OC)c3cc(OC)c(OC)cc3c2c1 [PP2S, Methyl (S)-1-((3-butoxy-6,7-dimethoxyphenanthren-9-yl)methyl)-5-oxopyrrolidine-2-carboxylate] |  | 35.9 ± 1.16 | 35.5 ± 1.48 | 0.055 ± 0.037 | 30.5 ± 2.16 | 35.9 ± 1.07 | 36.1 ± 1.42 | 0.060 ± 0.034 | 31.8 ± 2.49 | 35.9 ± 1.14 | 34.9 ± 1.63 | 0.055 ± 0.021 | 33.6 ± 1.67 | 69.4 | 67.4 | 78.8 | 74.3 | 46.9 | 38.6 | did not show genotoxicity
